Measured values reported in PubChem BioAssay (NCI).
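Where inhibition never reached the appropriate level, the endpoint shown equals the highest concentration tested. Otherwise, values were interpolated linearly from a five-concentration, 48-hour dose response in 96-well plates. TGI: concentration producing complete growth inhibition.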

How the values were obtained:
Assay in all cases: NCI tumour cell line growth inhibition, 48 h
SK-MEL-2 melanoma = system: SK-MEL-2 melanoma
SNB-75 CNS = system: SNB-75 CNS
DMS 273 small cell lung = system: DMS 273 small cell lung
RPMI-8226 leukemia = system: RPMI-8226 leukemia
OVCAR-5 ovarian = system: OVCAR-5 ovarian
NCI-H522 lung = system: NCI-H522 lung
SK-MEL-5 melanoma = system: SK-MEL-5 melanoma
OVCAR-8 ovarian = system: OVCAR-8 ovarian
SF-295 CNS = system: SF-295 CNS
NCI-H226 lung = system: NCI-H226 lung
DMS 114 small cell lung = system: DMS 114 small cell lung
KM12 colon = system: KM12 colon
HCC-2998 colon = system: HCC-2998 colon
A498 renal = system: A498 renal
LXFL 529 NSCLC = system: LXFL 529 NSCLC
HCT-15 colon = system: HCT-15 colon
XF 498 CNS = system: XF 498 CNS
UACC-257 melanoma = system: UACC-257 melanoma
SN12C renal = system: SN12C renal
HCT-116 colon = system: HCT-116 colon
OVCAR-3 ovarian = system: OVCAR-3 ovarian
NCI-H23 lung = system: NCI-H23 lung
IGROV1 ovarian = system: IGROV1 ovarian
HT29 colon = system: HT29 colon
SR leukemia = system: SR leukemia
A549 NSCLC = system: A549 NSCLC
COLO 205 colon = system: COLO 205 colon
HOP-62 NSCLC = system: HOP-62 NSCLC
MOLT-4 leukemia = system: MOLT-4 leukemia
SF-268 CNS = system: SF-268 CNS
K-562 leukemia = system: K-562 leukemia
OVCAR-4 ovarian = system: OVCAR-4 ovarian
786-0 renal = system: 786-0 renal
LOX IMVI melanoma = system: LOX IMVI melanoma
HL-60(TB) leukemia = system: HL-60(TB) leukemia
UACC-62 melanoma = system: UACC-62 melanoma
M19-MEL melanoma = system: M19-MEL melanoma
SK-MEL-28 melanoma = system: SK-MEL-28 melanoma
TK-10 renal = system: TK-10 renal
ACHN renal = system: ACHN renal
KM20L2 colon = system: KM20L2 colon
MALME-3M melanoma = system: MALME-3M melanoma
NCI-H460 lung = system: NCI-H460 lung
HOP-92 NSCLC = system: HOP-92 NSCLC
SNB-19 CNS = system: SNB-19 CNS
CAKI-1 renal = system: CAKI-1 renal
DLD-1 colon = system: DLD-1 colon
U251 CNS = system: U251 CNS
UO-31 renal = system: UO-31 renal
SW-620 colon = system: SW-620 colon
HOP-18 NSCLC = system: HOP-18 NSCLC
SF-539 CNS = system: SF-539 CNS
SK-OV-3 ovarian = system: SK-OV-3 ovarian
M14 melanoma = system: M14 melanoma
SNB-78 CNS = system: SNB-78 CNS
EKVX NSCLC = system: EKVX NSCLC
RXF 393 renal = system: RXF 393 renal
CCRF-CEM leukemia = system: CCRF-CEM leukemia

COC1CC2C3/C(=N/Nc4ccc([N+](=O)[O-])cc4[N+](=O)[O-])CCC2(C)C3C1 (centres undefined)
TGI (SK-MEL-2 melanoma): > 10 µM
TGI (SNB-75 CNS): > 10 µM
TGI (DMS 273 small cell lung): > 10 µM
TGI (RPMI-8226 leukemia): > 100 µM
TGI (OVCAR-5 ovarian): > 10 µM
TGI (NCI-H522 lung): > 10 µM
TGI (SK-MEL-5 melanoma): > 10 µM
TGI (OVCAR-8 ovarian): > 100 µM
TGI (SF-295 CNS): > 10 µM
TGI (NCI-H226 lung): > 10 µM
TGI (DMS 114 small cell lung): > 100 µM
TGI (KM12 colon): > 100 µM
TGI (HCC-2998 colon): > 10 µM
TGI (A498 renal): > 10 µM
TGI (LXFL 529 NSCLC): > 10 µM
TGI (HCT-15 colon): > 100 µM
TGI (XF 498 CNS): > 100 µM
TGI (UACC-257 melanoma): > 100 µM
TGI (SN12C renal): > 10 µM
TGI (HCT-116 colon): > 100 µM
TGI (OVCAR-3 ovarian): > 10 µM
TGI (NCI-H23 lung): > 10 µM
TGI (IGROV1 ovarian): > 10 µM
TGI (HT29 colon): > 10 µM
TGI (SR leukemia): > 100 µM
TGI (A549 NSCLC): > 100 µM
TGI (COLO 205 colon): > 10 µM
TGI (HOP-62 NSCLC): > 10 µM
TGI (MOLT-4 leukemia): > 100 µM
TGI (SF-268 CNS): > 100 µM
TGI (K-562 leukemia): > 100 µM
TGI (OVCAR-4 ovarian): > 10 µM
TGI (786-0 renal): > 10 µM
TGI (LOX IMVI melanoma): > 10 µM
TGI (HL-60(TB) leukemia): > 100 µM
TGI (UACC-62 melanoma): > 10 µM
TGI (M19-MEL melanoma): > 10 µM
TGI (SK-MEL-28 melanoma): > 100 µM
TGI (TK-10 renal): > 100 µM
TGI (ACHN renal): > 10 µM
TGI (KM20L2 colon): > 10 µM
TGI (MALME-3M melanoma): > 10 µM
TGI (NCI-H460 lung): > 100 µM
TGI (HOP-92 NSCLC): > 10 µM
TGI (SNB-19 CNS): > 10 µM
TGI (CAKI-1 renal): > 10 µM
TGI (DLD-1 colon): > 10 µM
TGI (U251 CNS): > 10 µM
TGI (UO-31 renal): > 10 µM
TGI (SW-620 colon): > 10 µM
TGI (HOP-18 NSCLC): > 10 µM
TGI (SF-539 CNS): > 10 µM
TGI (SK-OV-3 ovarian): > 10 µM
TGI (M14 melanoma): > 10 µM

Cc1cc(OCC(O)CO)ccc1-c1ccccc1 (centres undefined)
TGI (SK-MEL-2 melanoma): > 100 µM
TGI (SNB-75 CNS): > 100 µM
TGI (DMS 273 small cell lung): > 100 µM
TGI (NCI-H522 lung): > 100 µM
TGI (SK-MEL-5 melanoma): > 100 µM
TGI (OVCAR-8 ovarian): > 100 µM
TGI (SNB-78 CNS): > 100 µM
TGI (NCI-H226 lung): > 100 µM
TGI (DMS 114 small cell lung): > 100 µM
TGI (KM12 colon): > 100 µM
TGI (HCC-2998 colon): > 100 µM
TGI (A498 renal): 80.4 µM
TGI (LXFL 529 NSCLC): > 100 µM
TGI (HCT-15 colon): > 100 µM
TGI (XF 498 CNS): > 100 µM
TGI (UACC-257 melanoma): > 100 µM
TGI (SN12C renal): > 100 µM
TGI (HCT-116 colon): > 100 µM
TGI (EKVX NSCLC): > 100 µM
TGI (OVCAR-3 ovarian): > 100 µM
TGI (NCI-H23 lung): > 100 µM
TGI (IGROV1 ovarian): > 100 µM
TGI (HT29 colon): > 100 µM
TGI (RXF 393 renal): 87.1 µM
TGI (SR leukemia): > 100 µM
TGI (A549 NSCLC): > 100 µM
TGI (COLO 205 colon): > 100 µM
TGI (MOLT-4 leukemia): > 100 µM
TGI (SF-268 CNS): > 100 µM
TGI (K-562 leukemia): > 100 µM
TGI (OVCAR-4 ovarian): > 100 µM
TGI (786-0 renal): > 100 µM
TGI (HL-60(TB) leukemia): > 100 µM
TGI (UACC-62 melanoma): > 100 µM
TGI (M19-MEL melanoma): > 100 µM
TGI (SK-MEL-28 melanoma): > 100 µM
TGI (TK-10 renal): > 100 µM
TGI (ACHN renal): > 100 µM
TGI (KM20L2 colon): > 100 µM
TGI (MALME-3M melanoma): > 100 µM
TGI (NCI-H460 lung): > 100 µM
TGI (HOP-92 NSCLC): > 100 µM
TGI (CCRF-CEM leukemia): > 100 µM
TGI (SNB-19 CNS): > 100 µM
TGI (CAKI-1 renal): > 100 µM
TGI (U251 CNS): > 100 µM
TGI (UO-31 renal): > 100 µM
TGI (SW-620 colon): 23.7 µM
TGI (HOP-18 NSCLC): > 100 µM
TGI (M14 melanoma): > 100 µM
